Values after ≈ are worked out from the molar mass of the structure shown. Active and inactive are the calls of the source. No cut-off for these calls is given here.
Legend:
Estrogen receptor = biological target: T1, Estrogen receptor (Homo sapiens, UniProt P03372); experiment: Induction of Estrogen receptor degradation in wildtype human MCF7 cells assessed as reduction in estrogen receptor level incubated for 24 hrs by Western blot analysis; assay type: cell-based
T1 sequence (P03372 whole entry): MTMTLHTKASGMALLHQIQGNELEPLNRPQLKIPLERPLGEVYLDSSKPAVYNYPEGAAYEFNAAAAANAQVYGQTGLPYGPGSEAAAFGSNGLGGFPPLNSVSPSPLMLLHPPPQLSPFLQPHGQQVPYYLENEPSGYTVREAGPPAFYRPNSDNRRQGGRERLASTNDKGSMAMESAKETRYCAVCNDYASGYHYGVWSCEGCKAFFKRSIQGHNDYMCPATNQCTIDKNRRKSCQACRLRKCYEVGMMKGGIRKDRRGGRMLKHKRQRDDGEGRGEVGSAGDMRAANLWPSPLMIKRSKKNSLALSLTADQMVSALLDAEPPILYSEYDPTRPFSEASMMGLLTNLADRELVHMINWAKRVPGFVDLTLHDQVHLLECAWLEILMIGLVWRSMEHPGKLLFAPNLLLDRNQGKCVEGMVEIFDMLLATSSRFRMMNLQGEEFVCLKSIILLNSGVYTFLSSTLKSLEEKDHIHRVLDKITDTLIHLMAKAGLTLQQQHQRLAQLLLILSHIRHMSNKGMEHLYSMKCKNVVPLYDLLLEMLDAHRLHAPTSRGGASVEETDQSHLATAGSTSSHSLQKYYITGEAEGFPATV

[1] = Metabolic stability in human liver microsomes assessed as parent compound remaining incubated for 60 mins in presence of NADPH by LC-MS/MS analysis; assay type: ADME, Microsome; settings: read-out: Stability
[2] = Metabolic stability in rat liver microsomes assessed as parent compound remaining incubated for 60 mins in presence of NADPH by LC-MS/MS analysis; assay type: ADME, Microsome; settings: read-out: Stability
MCF7 [3] = experiment: Antiproliferative activity against wildtype human MCF7 cells assessed as inhibition of cell proliferation incubated for 6 days in presence of beta-estradiol by CellTiter-Glo assay; assay type: functional, cell-based; settings: MCF7, 144 h
[4] = Solubility of compound in long acting formulation containing ethanol, benzyl alcohol, benzyl benzoate and castor oil assessed as clear yellow oil solution at 33.69 mg incubated for 1 day by LC-MS/MS analysis; assay type: physicochemical; settings: 24 h
MCF7 [5] = experiment: Induction of apoptosis in human MCF7 cells assessed as viable cells at 100 nM incubated for 24 hrs by Annexin V-FITC/PI staining based flow cytometric analysis (reference value: 93.5 %); assay type: functional; settings: read-out: Activity
[6] = Solubility of compound in long acting formulation containing ethanol, benzyl alcohol, benzyl benzoate and castor oil incubated for 1 days by LC-MS/MS analysis; assay type: physicochemical; settings: 24 h; time 1 day
MCF7 [7] = experiment: Induction of apoptosis in human MCF7 cells assessed as viable cells at 20 nM incubated for 24 hrs by Annexin V-FITC/PI staining based flow cytometric analysis (reference value: 93.5 %); assay type: functional; settings: read-out: Activity
[8] = Drug concentration in BALB/cNj Foxn1nu/Gpt mouse tumor xenografted with human MCF-7/TAMR-1 cells at 0.8 mg, IM administered for 28 days; assay type: ADME, tissue-based, Neoplasm; settings: time 28 day, read-out: Ct
[9] = Cmax in Sprague-Dawley rat at 30 mg/kg, IM measured after 49 days by LC-MS/MS analysis; assay type: ADME, organism-based; settings: in vivo, time 49 day
[10] = Drug concentration in BALB/cNj Foxn1nu/Gpt mouse plasma xenografted with human MCF-7/TAMR-1 cells at 7.2 mg, IM administered for 28 days; assay type: ADME, cell-free; settings: time 28 day
[11] = Drug concentration in BALB/cNj Foxn1nu/Gpt mouse tumor xenografted with human MCF-7/TAMR-1 cells at 2.4 mg, IM administered for 28 days; assay type: ADME, tissue-based, Neoplasm; settings: time 28 day, read-out: Ct
[12] = Drug concentration in BALB/cNj Foxn1nu/Gpt mouse tumor xenografted with human MCF-7/TAMR-1 cells at 7.2 mg, IM administered for 28 days; assay type: ADME, tissue-based, Neoplasm; settings: time 28 day, read-out: Ct
[13] = Drug concentration in BALB/cNj Foxn1nu/Gpt mouse plasma xenografted with human MCF-7/TAMR-1 cells at 0.8 mg, IM administered for 28 days; assay type: ADME, cell-free; settings: time 28 day
[14] = Half-life in Sprague-Dawley rat at 30 mg/kg, IM measured after 49 days by LC-MS/MS analysis; assay type: ADME, organism-based; settings: in vivo, time 49 day
[15] = Apparent volume of distribution during terminal phase in Sprague-Dawley rat at 30 mg/kg, IM measured after 49 days by LC-MS/MS analysis; assay type: ADME, organism-based; settings: in vivo, 1176 h, time 49 day
[16] = MRT in Sprague-Dawley rat at 30 mg/kg, IM measured after 49 days by LC-MS/MS analysis; assay type: ADME, organism-based; settings: in vivo, time 49 day
[17] = Drug concentration in BALB/cNj Foxn1nu/Gpt mouse plasma xenografted with human MCF-7/TAMR-1 cells at 2.4 mg, IM administered for 28 days; assay type: ADME, cell-free; settings: time 28 day
[18] = AUClast in Sprague-Dawley rat at 30 mg/kg, IM measured after 49 days by LC-MS/MS analysis; assay type: ADME, organism-based; settings: in vivo, 1176 h, time 49 day
[19] = Solubility of compound in long acting formulation containing ethanol, benzyl alcohol, benzyl benzoate and castor oil at 57.27 mg incubated for 1 day by LC-MS/MS analysis; assay type: physicochemical; settings: 24 h
MCF7 [20] = experiment: Induction of apoptosis in human MCF7 cells assessed as viable cells at 4 nM incubated for 24 hrs by Annexin V-FITC/PI staining based flow cytometric analysis (reference value: 93.5 %); assay type: functional; settings: read-out: Activity
[21] = Tmax in Sprague-Dawley rat at 30 mg/kg, IM measured after 49 days by LC-MS/MS analysis; assay type: ADME, organism-based; settings: in vivo, 1176 h, time 49 day
[22] = Solubility of compound in long acting formulation containing ethanol, benzyl alcohol, benzyl benzoate and castor oil at 28.07 mg incubated for 1 day by LC-MS/MS analysis; assay type: physicochemical; settings: 24 h
Mus musculus [23] = experiment: In vivo antagonist activity at Estrogen receptor in BALB/cNj Foxn1nu/Gpt mouse xenografted with human MCF-7/TAMR-1 cells assessed as reduction in PgR level in tumor at 2.0 mg, IM administered for 28 days by Western blot analysis; assay type: functional; settings: time 28.0 day
Mus musculus [24] = experiment: In vivo antagonist activity at Estrogen receptor in BALB/cNj Foxn1nu/Gpt mouse xenografted with human MCF-7/TAMR-1 cells assessed as reduction in ER level in tumor at 2.0 mg, IM administered for 28 days by Western blot analysis; assay type: functional; settings: time 28.0 day
[25] = Drug concentration in BALB/cNj Foxn1nu/Gpt mouse tumor xenografted with human MCF-7/TAMR-1 cells at 2.0 mg, IM administered for 28 days; assay type: ADME, tissue-based, Neoplasm; settings: time 28 day, read-out: Ct
[26] = biological target: T2, Estrogen receptor (Homo sapiens) (UniProt P03372); settings: T47D, time <= 48.0 hrs
T2 sequence (whole entry): T1 sequence (P03372 whole entry)

T47D [27] = experiment: Antiproliferative activity against human T47D cells transfected with wildtype ESR1 assessed as inhibition of cell proliferation incubated for 5 days by CellTiter-Glo assay; settings: 120 h
Mus musculus [28] = experiment: Invivo antagonist activity at Estrogen receptor in BALB/cNj Foxn1nu/Gpt mouse xenografted with human MCF-7/TAMR-1 cells assessed as single-layered cell phenotype of epithelial cells in uterus at 2.0 mg, IM administered for 28 days by H&E staining based analysis; assay type: functional; settings: time 28.0 day
MCF7 [29] = settings: Homo sapiens, dose 4.0 nM, time 144.0 hrs
[30] = Tmax in Sprague-Dawley rat at 25 mg/kg, IM measured after 49 days by LC-MS/MS analysis; assay type: ADME, organism-based; settings: in vivo, time 49 day
[31] = biological target: T2, Estrogen receptor (Homo sapiens); settings: MCF7, time <= 48.0 hrs
[32] = In vivo antagonist activity at Estrogen receptor in BALB/cNj Foxn1nu/Gpt mouse xenografted with human MCF-7/TAMR-1 cells assessed as fold reduction in uterus wet weight to body weight ratio at 2.0 mg, IM administered for 28 days; assay type: functional; settings: time 28 day
T47D [33] = experiment: Antiproliferative activity against human T47D cells transfected with ESR1 D538G mutant assessed as inhibition of cell proliferation incubated for 5 days by CellTiter-Glo assay; settings: 120 h
[34] = MRT in Sprague-Dawley rat at 25 mg/kg, IM measured after 49 days by LC-MS/MS analysis; assay type: ADME, organism-based; settings: in vivo, time 49 day
T47D [35] = experiment: Antiproliferative activity against human T47D cells assessed as inhibition of proliferation incubated for 6 days by CellTiter-Glo assay; settings: 144 h
[36] = Apparent volume of distribution during terminal phase in Sprague-Dawley rat at 25 mg/kg, IM measured after 49 days by LC-MS/MS analysis; assay type: ADME, organism-based; settings: in vivo, 1176 h, time 49 day
T47D [37] = experiment: Antiproliferative activity against human T47D cells transfected with ESR1 Y537S mutant assessed as inhibition of cell proliferation incubated for 5 days by CellTiter-Glo assay; settings: 120 h
[38] = Half-life in Sprague-Dawley rat at 25 mg/kg, IM measured after 49 days by LC-MS/MS analysis; assay type: ADME, organism-based; settings: in vivo, time 49 day
[39] = Cmax in Sprague-Dawley rat at 25 mg/kg, IM measured after 49 days by LC-MS/MS analysis; assay type: ADME, organism-based; settings: in vivo, time 49 day
[40] = Drug concentration in BALB/cNj Foxn1nu/Gpt mouse plasma xenografted with human MCF-7/TAMR-1 cells at 2.0 mg, IM administered for 28 days; assay type: ADME, cell-free; settings: time 28 day
[41] = AUClast in Sprague-Dawley rat at 25 mg/kg, IM measured after 49 days by LC-MS/MS analysis; assay type: ADME, organism-based; settings: in vivo, 1176 h, time 49 day

C[C@@H]1Cc2c([nH]c3ccccc23)[C@@H](c2c(F)cc(NC3CN(CCOCCCC(F)(F)C(F)(F)F)C3)cc2F)N1CC(F)(F)CO
DC50 (Estrogen receptor): 3.8 nM

C[C@@H]1Cc2c([nH]c3ccccc23)[C@@H](c2c(F)cc(NC3CN(CCC[S+]([O-])CCCC(F)(F)C(F)(F)F)C3)cc2F)N1CC(F)(F)F (stereo partly specified)
DC50 (Estrogen receptor): 1.7 nM | remaining at 1 h [1]: 57.4% | remaining at 1 h [2]: 93.7% | IC50 (MCF7 [3]): 2.7 nM

C[C@@H]1Cc2c([nH]c3ccccc23)[C@@H](c2c(F)cc(NC3CN(CCCS(=O)(=O)CCCC(F)(F)C(F)(F)F)C3)cc2F)N1CC(F)(F)CO
solubility [4]: Soluble | viability at 0.1 µM (MCF7 [5]): 66.2% | solubility [6]: 95.1 mg/mL (≈ 131 mM) | viability at 0.02 µM (MCF7 [7]): 70.5% | concentration at 672 h [8]: 35.9 ng/mL | Cmax [9]: 41.5 ng/mL | remaining at 1 h [1]: 61% | concentration at 672 h [10]: 87.7 ng/mL | concentration at 672 h [11]: 154 ng/mL | concentration at 672 h [12]: 252 ng/mL | concentration at 672 h [13]: 14.9 ng/mL | half-life [14]: 14.7 days | Vz/F [15]: 1658.37 L/kg | MRT [16]: 15.6 days | remaining at 1 h [2]: 85.7% | concentration at 672 h [17]: 46.6 ng/mL | AUClast [18]: 840.09 ng·days/mL | solubility [19]: Insoluble | viability at 0.004 µM (MCF7 [20]): 82.7% | Tmax [21]: 14 days | solubility [22]: Insoluble

C[C@]12CC[C@@H]3c4ccc(O)cc4C[C@@H](CCCCCCCCC[S+]([O-])CCCC(F)(F)C(F)(F)F)[C@H]3[C@@H]1CC[C@@H]2O (stereo partly specified) [FULVESTRANT]
solubility [6]: 53.17 mg/mL (≈ 87.6 mM) | Activity (Mus musculus [23]): Active | Activity (Mus musculus [24]): Active | concentration at 672 h [25]: 83.4 ng/mL | T1/2 [26]: 0.608 days | IC50 (T47D [27]): 2.21 nM | Activity (Mus musculus [28]): Active | remaining at 1 h [1]: 13% | inhibition (MCF7 [29]): Active | Tmax [30]: 0.29 days | T1/2 [31]: 0.0542 days | fold change (FC) [32]: ~2 | IC50 (T47D [33]): 58.6 nM | MRT [34]: 18.3 days | IC50 (T47D [35]): 2.3 nM | Vz/F [36]: 2158.67 L/kg | remaining at 1 h [2]: 9.6% | IC50 (T47D [37]): 5.94 nM | half-life [38]: 28.6 days | Cmax [39]: 36.7 ng/mL | concentration at 672 h [40]: 30.8 ng/mL | AUClast [41]: 325.96 ng·days/mL | IC50 (MCF7 [3]): 0.7 nM

C[C@@H]1Cc2c([nH]c3ccccc23)[C@@H](c2c(F)cc(OC3CN(CC[S+]([O-])CCCC(F)(F)C(F)(F)F)C3)cc2F)N1CC(F)(F)F (stereo partly specified)
remaining at 1 h [1]: 24.9% | remaining at 1 h [2]: 53.7%

— ChEMBL document CHEMBL5528003 (Eur J Med Chem, 2024)
